Experimental data published in US20120065228A1, “COMPOSITIONS AND METHODS FOR TREATING, CONTROLLING, REDUCING, OR AMELIORATING OCULAR INFLAMMATORY WITH LOWER RISK OF INCREASED INTRAOCULAR PRESSURE” (priority 2007, published 2012).

Key:
[1] = test system: inflammation following cataract surgery; assay: Clinical dose ranging study after cataract surgery: resolution of anterior chamber (AC) cells and flare; type: in vivo, human
From the text: (§1) There were 8 treatment groups in this study, consisting of three drug doses, vehicle and three dosing frequencies (see also Table 4-1): • Group A: 1% BOL-303242-X ophthalmic suspension, two times per day (BID) • Group B: 2% BOL-303242-X ophthalmic suspension, one time per day (QD) • Group C: 2% BOL-303242-X ophthalmic suspension, BID • Group D: 2% BOL-303242-X ophthalmic suspension, four times per day (QID) • Group E: 3% BOL-303242-X ophthalmic suspension, QD • Group F: 3% BOL-303242-X ophthalmic suspension, BID • Group G: 3% BOL-303242-X ophthalmic suspension, QID • Group H: Vehicle for BOL-303242-X (divided equally into QID, BID, and QD)
(§2) At Visit 3 (postoperative Day 1, 18 to 34 hours following surgery), subjects meeting all eligibility criteria were randomized to one of the treatment groups continuing to be studied, including vehicle, in a 1:1 ratio.
(§3) Subjects self-administered study drug, instilling 1 to 2 drops of study drug into the study eye: QID at approximately 4 hour intervals, BID at approximately 12 hour intervals, or QD once in the morning, for 14 days. The initial dose occurred in the clinic at Visit 3 and the final dose was on the day before Visit 6 (postoperative Day 15±1 day). Subjects were examined and evaluated according to the following schedule:
(§4) Visit 1 (screening), Visit 2 (cataract surgery), Visit 3 (postoperative Day 1), Visit 4 (postoperative Day 3±1 day), Visit 5 (postoperative Day 8±1 day), Visit 6 (postoperative Day 15±1 day), Visit 7 (postoperative Day 18±1 day). Subject assessments included adverse events (AEs), concomitant medications, ocular symptoms, pinholed Snellen visual acuity (VA), intraocular pressure (IOP), ocular signs (biomicroscopy), fundoscopy, and study drug drop sensation. In addition, subject diaries were collected and reviewed for accuracy and treatment compliance.
Among other criteria for inclusion in this study, subjects were those who: • were to be at least 18 years of age on the date the informed consent form (“ICF”) was signed and with the capacity to voluntarily provide consent; • were candidates for routine, uncomplicated cataract surgery (phacoemulsification with posterior chamber intraocular lens (“IOL”) implantation, not combined with any other surgery) in the study eye; • in the Investigator's opinion, had potential postoperative pinholed Snellen visual acuity (“VA”) of at least 20/200 or pinholed Decimal VA of 0.1 in the study eye; • had undergone routine, uncomplicated cataract surgery (phacoemulsification with posterior chamber IOL implantation, not combined with any other surgery) in the study eye; and • had ≧Grade 2 anterior chamber (“AC”) cells in the study eye.
Primary Efficacy: The primary efficacy endpoint for this study was the proportion of subjects with complete resolution of AC cells at Visit 5 (postoperative Day 8). Complete resolution of AC cells is defined as Grade 0 cells.
(§5) Secondary Efficacy: The secondary efficacy endpoints for this study were the proportions of subjects with Grade 0 pain at Visit 5 (postoperative Day 8) and at each visit, complete resolution of AC cells at each visit, complete resolution of AC cells and flare at each visit, complete resolution of AC flare at each visit, change from baseline to each follow-up visit in AC cells and AC flare combined and separately, ocular symptoms.

[2] = test system: pain following cataract surgery; assay: Clinical dose ranging study after cataract surgery: Grade 0 pain; type: in vivo, human
From the text: as §1, §2, §3, §4, §5

[3] = test system: intraocular pressure (IOP); assay: Clinical dose ranging study after cataract surgery: intraocular pressure (safety); type: in vivo, human
From the text: as §1, §3
Visit 1 (screening), Visit 2 (cataract surgery), Visit 3 (postoperative Day 1), Visit 4 (postoperative Day 3±1 day), Visit 5 (postoperative Day 8±1 day), Visit 6 (postoperative Day 15±1 day), Visit 7 (postoperative Day 18±1 day). […]

[4] = test system: IL-1β-stimulated cytokine expression in primary human corneal epithelial cells; assay: IL-1β-stimulated cytokine production in primary human corneal epithelial cells (30-cytokine Luminex kit); conditions: primary HCECs, 10 ng/ml IL-1β, 18 h
Method: Primary HCECs were seeded in 24-well plates. […] Each treatment was performed in triplicate. Media were collected and used for determination of cytokine content using a 30-cytokine Luminex kit. Cell viability was determined by alamarBlue assay (LP06013).
Median fluorescence intensity (MFI) was used to obtain the concentration of each cytokines in pg/ml based on the standard curve of each cytokine assayed by Luminex. The linear range of the standard curve for each cytokine was used for determination of cytokine concentration. Duplicate values for each sample were averaged. Data were expressed as mean±SD. Statistical analysis was performed using one-way ANOVA-Dunnett's test, and P<0.05 was considered statistically significant.

[5] = 1% BID, Visit 5 (postoperative Day 8)
[6] = 1% BID, Visit 6 (postoperative Day 15)
[7] = 1% BID, Visit 7 (postoperative Day 18)
[8] = 2% BID, Visit 6 (postoperative Day 15)
[9] = 2% QD, Visit 5 (postoperative Day 8)
[10] = 2% QD, Visit 6 (postoperative Day 15)
[11] = 2% QID, Visit 5 (postoperative Day 8)
[12] = 2% QID, Visit 6 (postoperative Day 15)
[13] = 2% QID, Visit 7 (postoperative Day 18)
[14] = 3% BID, Visit 4 (postoperative Day 3)
[15] = 3% BID, Visit 5 (postoperative Day 8)
[16] = 3% BID, Visit 6 (postoperative Day 15)
[17] = 3% BID, Visit 7 (postoperative Day 18)
[18] = 3% QD, Visit 4 (postoperative Day 3)
[19] = 3% QD, Visit 5 (postoperative Day 8)
[20] = 3% QD, Visit 6 (postoperative Day 15)
[21] = 3% QD, Visit 7 (postoperative Day 18)
[22] = 3% QID, Visit 5 (postoperative Day 8)
[23] = 3% QID, Visit 6 (postoperative Day 15)
[24] = 3% QID, Visit 7 (postoperative Day 18)

`Cc1ccc2c(NCC(O)(CC(C)(C)c3cc(F)cc4c3OCC4)C(F)(F)F)cccc2n1` (centres unmarked) [BOL-303242-X] was tested, and the “Proportion of subjects with complete resolution of AC flare” value (from here on “Proportion of subjects … of AC flare”) ([1]; 1% BID (printed 196 BID), Visit 7 (postoperative Day 18)) was 56.7%, the “Proportion of subjects with complete resolution of AC cells” value [1, 5] was 21.7% and the “Proportion of subjects with complete resolution of AC cells and flare combined” value (shortened to “Proportion … of AC cells and flare combined”) [1, 5] was 20.0%. For the same compound, the “Proportion of subjects … of AC flare” value [1, 5] was 41.7%, the “Proportion of subjects … of AC flare” value [1, 6] was 66.7% and the “Proportion of subjects with complete resolution of AC cells” value [1, 7] was 41.7%. For the same compound, the “Proportion … of AC cells and flare combined” value [1, 7] was 41.7%, the “Proportion of subjects … of AC flare” value ([1]; 2% BID, Visit 5 (postoperative Day 8)) was 50.0% and the “Proportion of subjects … of AC flare” value [1, 8] was 60.7%. For the same compound, the “Proportion of subjects with complete resolution of AC cells” value [1, 9] was 21.4%, the “Proportion … of AC cells and flare combined” value [1, 9] was 21.4% and the “Proportion of subjects … of AC flare” value [1, 9] was 42.9%. The “Proportion … of AC cells and flare combined” value [1, 10] was 35.7%, the “Proportion of subjects … of AC flare” value ([1]; 2% QID (printed 2% ND), Visit 6 (postoperative Day 15)) was 66.7% and the “Proportion of subjects with complete resolution of AC cells” value [1, 11] was 28.3%. For the same compound, the “Proportion … of AC cells and flare combined” value [1, 11] was 26.7%, the “Proportion of subjects … of AC flare” value [1, 11] was 51.7% and the “Proportion of subjects with complete resolution of AC cells” value [1, 12] was 43.3%. The “Proportion … of AC cells and flare combined” value [1, 12] was 41.7%, the “Proportion of subjects with complete resolution of AC cells” value [1, 13] was 53.396% and the “Proportion … of AC cells and flare combined” value [1, 13] was 53.3%. The “Proportion of subjects … of AC flare” value [1, 13] was 66.7%, the “Proportion of subjects … of AC flare” value [1, 14] was 38.3% and the “Proportion of subjects with complete resolution of AC cells” value [1, 15] was 25.0%. For the same compound, the “Proportion … of AC cells and flare combined” value [1, 15] was 23.3%, the “Proportion of subjects … of AC flare” value [1, 15] was 51.7% and the “Proportion of subjects with complete resolution of AC cells” value [1, 16] was 38.3%. The “Proportion … of AC cells and flare combined” value [1, 16] was 38.3%, the “Proportion of subjects … of AC flare” value [1, 16] was 51.7% and the “Proportion of subjects with complete resolution of AC cells” value [1, 17] was 43.3%. The “Proportion … of AC cells and flare combined” value [1, 17] was 43.3%, the “Proportion of subjects … of AC flare” value [1, 17] was 56.7% and the “Proportion of subjects … of AC flare” value [1, 18] was 35.6%. The “Proportion of subjects with complete resolution of AC cells” value [1, 19] was 25.4%, the “Proportion … of AC cells and flare combined” value [1, 19] was 23.7% and the “Proportion of subjects … of AC flare” value [1, 19] was 55.9%. For the same compound, the “Proportion of subjects with complete resolution of AC cells” value [1, 20] was 47.5%, the “Proportion … of AC cells and flare combined” value [1, 20] was 47.5% and the “Proportion of subjects … of AC flare” value [1, 20] was 66.1%. For the same compound, the “Proportion of subjects with complete resolution of AC cells” value [1, 21] was 47.5%, the “Proportion … of AC cells and flare combined” value [1, 21] was 47.5% and the “Proportion of subjects … of AC flare” value [1, 21] was 57.6%. For the same compound, the “Proportion of subjects with complete resolution of AC cells” value [1, 22] was 30.0%, the “Proportion … of AC cells and flare combined” value [1, 22] was 30.0% and the “Proportion of subjects … of AC flare” value [1, 22] was 55.0%. For the same compound, the “Proportion of subjects with complete resolution of AC cells” value [1, 23] was 38.3%, the “Proportion … of AC cells and flare combined” value [1, 23] was 36.7% and the “Proportion of subjects … of AC flare” value [1, 23] was 61.7%. For the same compound, the “Proportion of subjects with complete resolution of AC cells” value [1, 24] was 46.7%, the “Proportion … of AC cells and flare combined” value [1, 24] was 45.0% and the “Proportion of subjects … of AC flare” value [1, 24] was 58.3%. For the same compound, the “Anterior chamber cells, change from baseline, compared to vehicle” value (shortened to “Anterior chamber cells, change”) ([1]; Visit 4: 1% BID, 2% QID, 3% QD, 3% QID) was “Statistically significant mean decreases”, the “Anterior chamber cells, change” value ([1]; Visit 5: 1% BID, 2% QD, 2% QID, 3% QD, 3% BID, 3% QID) was “Statistically significant mean decreases” and the “Anterior chamber cells, change” value ([1]; Visit 6: 1% BID, 2% QID, QD, 3% BID, 3% QID) was “Statistically significant mean decreases”. The “Anterior chamber cells, change” value ([1]; Visit 7: 1% BID. 2% QD, 2% QID, QD, 3% BID, 3% QID) was “Statistically significant mean decreases”, the “Proportion of subjects with Grade 0 pain” value [2, 6] was 61.7% and the “Proportion of subjects with Grade 0 pain” value [2, 7] was 61.7%. For the same compound, the “Proportion of subjects with Grade 0 pain” value [2, 8] was 57.1%, the “Proportion of subjects with Grade 0 pain” value ([2]; 2% BID, Visit 7 (postoperative Day 18)) was 53.6% and the “Proportion of subjects with Grade 0 pain” value [2, 10] was 57.1%. The “Proportion of subjects with Grade 0 pain” value ([2]; 2% QD, Visit 7 (postoperative Day 18)) was 57.1%, the “Proportion of subjects with Grade 0 pain” value ([2]; 2% QID (printed 296 QID), Visit 5 (postoperative Day 8)) was 78.396% and the “Proportion of subjects with Grade 0 pain” value ([2]; 2% QID, Visit 4 (postoperative Day 3)) was 73.3%. The “Proportion of subjects with Grade 0 pain” value [2, 12] was 75.0%, the “Proportion of subjects with Grade 0 pain” value [2, 13] was 71.7% and the “Proportion of subjects with Grade 0 pain” value [2, 14] was 70.0%. The “Proportion of subjects with Grade 0 pain” value [2, 15] was 75.0%, the “Proportion of subjects with Grade 0 pain” value [2, 16] was 68.3% and the “Proportion of subjects with Grade 0 pain” value [2, 18] was 81.4%. For the same compound, the “Proportion of subjects with Grade 0 pain” value [2, 19] was 71.2%, the “Proportion of subjects with Grade 0 pain” value [2, 20] was 71.2% and the “Proportion of subjects with Grade 0 pain” value [2, 21] was 66.1%. For the same compound, the “Proportion of subjects with Grade 0 pain” value ([2]; 3% QID, Visit 4 (postoperative Day 3)) was 66.7%, the “Proportion of subjects with Grade 0 pain” value [2, 22] was 70.0% and the “Proportion of subjects with Grade 0 pain” value [2, 23] was 70.0%. The “Mean IOP values among groups” value ([3]; 2% QID and 3% QD groups, Visit 4 (postoperative Day 3) to Visit 7 (postoperative Day 18)) was “lowest mean IOP values”, the “Proportion of subjects with mean IOP changes from baseline of ≧5 mmHg or ≧10 mmHg, compared to vehicle” value ([3]; any dose groups at any study visits) was “no statistically significant differences” and the “Effect on IL-1β-stimulated G-CSF production” value [4] was “significantly inhibited”. For the same compound, the “Effect on IL-1β-stimulated production of 6 cytokines (IL-6, IL-7, MCP-1, TGF-α, TNF-α and VEGF)” value ([4]; comparable potency) was “significantly inhibited” and the “Effect on IL-1β-stimulated production of 3 cytokines (GM-CSF, IL-8, and RANTES)” value ([4]; less potency compared to dexamethasone) was “significantly inhibited”.
